#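 GI50 marks 50% less growth. At the TGI there is no net growth.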
# Legend:
# Experiment in all cases: growth of human tumour cells (NCI), 384-well format
# HCC-2998 colon = system: HCC-2998 colon
# A549 NSCLC = system: A549 NSCLC
# OVCAR-4 ovarian = system: OVCAR-4 ovarian
# BT-549 breast = system: BT-549 breast
# EKVX NSCLC = system: EKVX NSCLC
# ACHN renal = system: ACHN renal
# HCT-15 colon = system: HCT-15 colon
# UACC-62 melanoma = system: UACC-62 melanoma
# NCI-H226 lung = system: NCI-H226 lung
# MDA-MB-468 breast = system: MDA-MB-468 breast
# HOP-92 NSCLC = system: HOP-92 NSCLC
# UACC-257 melanoma = system: UACC-257 melanoma
# SNB-19 CNS = system: SNB-19 CNS
Compound,GI50 (HCC-2998 colon) [µM],TGI (HCC-2998 colon) [µM],GI50 (A549 NSCLC) [µM],TGI (A549 NSCLC) [µM],GI50 (OVCAR-4 ovarian) [µM],TGI (OVCAR-4 ovarian) [µM],GI50 (BT-549 breast) [µM],TGI (BT-549 breast) [µM],GI50 (EKVX NSCLC) [µM],TGI (EKVX NSCLC) [µM],GI50 (ACHN renal) [µM],TGI (ACHN renal) [µM],GI50 (HCT-15 colon) [µM],TGI (HCT-15 colon) [µM],GI50 (UACC-62 melanoma) [µM],TGI (UACC-62 melanoma) [µM],GI50 (NCI-H226 lung) [µM],TGI (NCI-H226 lung) [µM],GI50 (MDA-MB-468 breast) [µM],TGI (MDA-MB-468 breast) [µM],other results
Cn1cc(-c2ccc(-c3cncc(Cl)c3N3CCC4(CCNC4=O)CC3)cc2)cn1,15.5,47.9,24.5,98,39.6,> 90,19.9,58.5,20.8,78.8,15.4,81.9,14.6,> 66.4,20.1,58.1,18.6,59.8,3.15,18.4,GI50 (HOP-92 NSCLC): 40.6 µM; TGI (HOP-92 NSCLC): > 100 µM; GI50 (UACC-257 melanoma): 35.6 µM; TGI (UACC-257 melanoma): > 71.3 µM; GI50 (SNB-19 CNS): 47.4 µM; TGI (SNB-19 CNS): > 100 µM
COc1ccc2c(Oc3ccc(NC(=O)c4c(C)n(CC(C)(C)O)n(-c5ccccc5)c4=O)nc3)ccnc2c1,> 100,> 100,16.8,> 100,15.2,> 100,11.5,25.7,37.3,> 100,5.81,> 100,6.05,> 100,4.99,24,22.6,> 100,22.9,> 100,GI50 (HOP-92 NSCLC): 10.4 µM; TGI (HOP-92 NSCLC): 41.1 µM; GI50 (UACC-257 melanoma): 25.1 µM; TGI (UACC-257 melanoma): > 100 µM; GI50 (SNB-19 CNS): 34.1 µM; TGI (SNB-19 CNS): > 100 µM
